Structures can show the parent of a compound that is named as a salt.
Biological target: T1, human GABA-B1b/rat GABA-B2 (UniProt O88871+Q9UBS5)
T1 construct: expressed in transfected cells; host or cells: CHO-K1 cell line (membranes)
Test: GTPγ[35S] binding, enhancement of GABA-induced binding
Format: biochemical
Conditions: 1 μM of GABA, 2.5 μM of Cpd; relative to basal activity
Protocol: In the functional GTP(γ)^35S assay (Lorenzen A, Fuss M, Vogt H, Schwabe U. Measurement of guanine nucleotide-binding protein activation by A1 adenosine receptor agonists in bovine brain membranes. Stimulation of guanosine-5′-O-(3-[^35S]thio)triphosphate binding. Mol. Pharmacol. 1993; 44:115-123) the agents of the invention enhance the GABA-induced GTP( ? )^35S binding at recombinant GABAB receptors with EC50 values of about 0.1 μM to about 50 μM.
GTPγ[^35S] binding. The assay mixtures contained 10 μg f membranes from a human GABA-B1b/rat GABA-B2 expressing CHO-K1 cell line in 50 mM Tris-HCl buffer, pH 7.7; 10 mM MgCl2; 1.8 mM CaCl2; 100 mM NaCl 30 μM guanosine 5′-diphosphate (30 μM; Sigma), 0.2 nM [^35S]GTP(γ)S, and test compounds (Urwyler et al, 2001). 96-well Packard Pico-plates (300 μl volume) were used. Non-specific binding was measured in the presence of unlabelled GTP(γ)S (10 μM, Sigma). The reagents were incubated for 40 min at room temperature and subsequently filtered (Packard unifilter-GF/C). After two washes with assay buffer as above the plates were dried for one hour at 50° C., 50 μl of scintillation solution (Microscint) was added and the radioactivity counted. For data analysis, non-specific binding was subtracted from all the other values; the compound effects were expressed relative to basal activity. Prism 3.0 software (Graph Pad software, San Diego, Calif.) was used for all data calculations. (Urwyler S, Mosbacher J, Lingenhoehl K, Heid J, Hofstetter K, Froestl W, Bettler B, Kaupmann K. Mol. Pharmacol. 2001, 60:963-71).

T1 sequence (Q9UBS5 1-844 isoform Q9UBS5-2): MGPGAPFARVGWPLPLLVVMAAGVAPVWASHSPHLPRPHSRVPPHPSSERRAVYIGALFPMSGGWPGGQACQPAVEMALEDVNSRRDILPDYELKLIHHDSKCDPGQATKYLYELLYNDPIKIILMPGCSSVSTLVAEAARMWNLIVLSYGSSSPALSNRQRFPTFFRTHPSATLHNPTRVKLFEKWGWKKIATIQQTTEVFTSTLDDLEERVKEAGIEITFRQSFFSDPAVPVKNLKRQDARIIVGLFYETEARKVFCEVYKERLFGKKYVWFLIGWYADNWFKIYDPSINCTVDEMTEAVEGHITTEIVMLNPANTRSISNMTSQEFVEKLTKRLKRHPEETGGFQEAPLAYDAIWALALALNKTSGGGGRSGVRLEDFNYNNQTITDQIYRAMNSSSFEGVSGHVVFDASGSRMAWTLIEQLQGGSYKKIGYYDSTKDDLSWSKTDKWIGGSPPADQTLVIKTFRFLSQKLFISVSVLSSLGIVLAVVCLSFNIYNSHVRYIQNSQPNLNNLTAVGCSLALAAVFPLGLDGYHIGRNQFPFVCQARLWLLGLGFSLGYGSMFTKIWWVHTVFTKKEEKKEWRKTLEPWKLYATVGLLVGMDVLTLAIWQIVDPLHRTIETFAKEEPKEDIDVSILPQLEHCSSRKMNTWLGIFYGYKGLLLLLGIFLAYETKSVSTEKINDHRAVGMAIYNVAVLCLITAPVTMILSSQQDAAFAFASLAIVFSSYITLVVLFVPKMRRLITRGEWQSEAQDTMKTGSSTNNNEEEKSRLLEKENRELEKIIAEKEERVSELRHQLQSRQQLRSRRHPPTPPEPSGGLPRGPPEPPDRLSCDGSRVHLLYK
T1 sequence (O88871 41-940): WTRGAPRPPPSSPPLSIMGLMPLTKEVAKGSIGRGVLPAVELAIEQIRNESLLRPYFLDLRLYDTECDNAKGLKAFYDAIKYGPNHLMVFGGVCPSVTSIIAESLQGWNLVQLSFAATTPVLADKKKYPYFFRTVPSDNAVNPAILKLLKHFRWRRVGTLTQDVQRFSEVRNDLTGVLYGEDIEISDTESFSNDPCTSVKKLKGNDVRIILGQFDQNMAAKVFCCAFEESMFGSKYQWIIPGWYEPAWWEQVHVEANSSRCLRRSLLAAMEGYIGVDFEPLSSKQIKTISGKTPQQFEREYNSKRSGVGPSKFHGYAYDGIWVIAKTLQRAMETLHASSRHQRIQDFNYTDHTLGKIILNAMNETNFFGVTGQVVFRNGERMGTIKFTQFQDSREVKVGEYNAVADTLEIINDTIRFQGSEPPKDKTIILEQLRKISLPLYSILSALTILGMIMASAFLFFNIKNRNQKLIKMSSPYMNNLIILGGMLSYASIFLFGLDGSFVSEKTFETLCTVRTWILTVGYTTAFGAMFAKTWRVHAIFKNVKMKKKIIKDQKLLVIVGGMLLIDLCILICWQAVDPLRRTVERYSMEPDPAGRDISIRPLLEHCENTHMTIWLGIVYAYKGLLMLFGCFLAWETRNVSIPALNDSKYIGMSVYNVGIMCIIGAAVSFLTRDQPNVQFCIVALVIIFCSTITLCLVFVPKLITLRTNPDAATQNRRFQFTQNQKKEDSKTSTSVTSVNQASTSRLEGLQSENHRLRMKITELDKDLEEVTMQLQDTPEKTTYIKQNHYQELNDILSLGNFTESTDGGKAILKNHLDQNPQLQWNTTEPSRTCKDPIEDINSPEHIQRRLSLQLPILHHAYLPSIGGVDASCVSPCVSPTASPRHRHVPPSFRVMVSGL

| Biological activity (%) | SMILES |
| --- | --- |
| 77 | Cc1ncc(-c2ccc(C(F)(F)F)cc2)c(NC2CCCCNC2=O)n1 (centres unmarked) [Example 62, 3-[2-Methyl-5-(4-trifluoromethyl-phenyl)-pyrimidin-4-ylamino]-azepan-2-one] |

Same assay, conditions: 1 μM of GABA, 25 μM of Cpd; relative to basal activity

| Biological activity (%) | SMILES |
| --- | --- |
| 129 | Cc1ncc(-c2ccc(C(F)(F)F)cc2)c(NC2CCCCNC2=O)n1 (centres unmarked) [Example 62, 3-[2-Methyl-5-(4-trifluoromethyl-phenyl)-pyrimidin-4-ylamino]-azepan-2-one] |

Same assay, conditions: 20 μM of GABA, 2.5 μM of Cpd; relative to basal activity

| Biological activity (%) | SMILES |
| --- | --- |
| 159 | Cc1ncc(-c2ccc(C(F)(F)F)cc2)c(NC2CCCCNC2=O)n1 (centres unmarked) [Example 62, 3-[2-Methyl-5-(4-trifluoromethyl-phenyl)-pyrimidin-4-ylamino]-azepan-2-one] |

Same assay, conditions: 20 μM of GABA, 25 μM of Cpd; relative to basal activity

| Biological activity (%) | SMILES |
| --- | --- |
| 192 | Cc1ncc(-c2ccc(C(F)(F)F)cc2)c(NC2CCCCNC2=O)n1 (centres unmarked) [Example 62, 3-[2-Methyl-5-(4-trifluoromethyl-phenyl)-pyrimidin-4-ylamino]-azepan-2-one] |

Test system: not given
Test: not given
Conditions: not given

| SMILES | melting point [°C] |
| --- | --- |
| Cc1ncc(-c2ccc(C#N)cc2)c(NC2CCCC2)n1 [Example 36, 4-[4-(cyclopentylamino)-2-methylpyrimidin-5-yl]benzonitrile] | 176 to 180 |
| C#Cc1nc(C)nc(NC2CCCC2)c1-c1ccc(C(F)(F)F)cc1 [Example 50, N-cyclopentyl-6-ethynyl-2-methyl-5-[4-(trifluoromethyl)phenyl]pyrimidin-4-amine] | 159 to 162 |
| Cc1ncc(-c2ccc(C(=O)O)cc2)c(NC2CCCC2)n1 [Example 27, 4-[4-(cyclopentylamino)-2-methylpyrimidin-5-yl]benzoic acid] | 252 to 255 |
| Cc1ncc(-c2ccc3nonc3c2)c(NC2CCCC2)n1 [Example 49, 5-(2,1,3-benzoxadiazol-5-yl)-N-cyclopentyl-2-methylpyrimidin-4-amine] | 165 to 167 |
| CC(=O)Nc1ccc(-c2cnc(C)nc2NC2CCCC2)cc1 [Example 46, N-{4-[4-(cyclopentylamino)-2-methylpyrimidin-5-yl]phenyl}acetamide] | 203 to 210 |
| Cc1ncc(-c2ccc([N+](=O)[O-])cc2)c(NC2CCCC2)n1 [Example 33, N-cyclopentyl-2-methyl-5-(4-nitrophenyl)pyrimidin-4-amine] | 185 to 188 |
| Cc1ncc(-c2ccc(C(F)(F)F)cc2)c(NC2CCCCNC2=O)n1 (centres unmarked) [Example 62, 3-[2-Methyl-5-(4-trifluoromethyl-phenyl)-pyrimidin-4-ylamino]-azepan-2-one] | 191 to 196 |
| COc1ccc(-c2cnc(C)nc2NC2CCCC2)cc1OC [Example 31, N-cyclopentyl-5-(3,4-dimethoxyphenyl)-2-methylpyrimidin-4-amine] | 143 to 145 |
| Cc1cccc(-c2c(NC3CCCC3)nc(C)nc2NC2CCCC2)c1 [Example 22, 5-(3-methylphenyl)-N,N′-dicyclopentyl-2-methylpyrimidine-4,6-diamine] | 95 to 98 |
| Cc1ncc(-c2ccc(C(N)=O)cc2)c(NC2CCCC2)n1 [Example 32, 4-[4-(cyclopentylamino)-2-methylpyrimidin-5-yl]benzamide] | 226 to 228 |
| Cc1ncc(-c2ccc(P(=O)(O)O)cc2)c(NC2CCCC2)n1 [Example 51, {4-[4-(cyclopentylamino)-2-methylpyrimidin-5-yl]phenyl}-phosphonic acid] | 254 to 259 |
| Cc1ccc(-c2c(NC3CCCC3)nc(C)nc2NC2CCCC2)cc1 [Example 20, 5-(4-methylphenyl)-N,N′-dicyclopentyl-2-methylpyrimidine-4,6-diamine] | 115 to 128 |
| Cc1ncc2c3ccc(C(F)(F)F)cc3c(=O)n(C3CCCC3)c2n1 [Example 53, 5-cyclopentyl-3-methyl-8-(trifluoromethyl)pyrimido[4,5-c]-isoquinolin-6(5H)-one] | 137 to 141 |
| CCc1nc(NC2CCCC2)c(-c2ccccc2)c(NC2CCCC2)n1 [Example 65, N,N′-Dicyclopentyl-2-ethyl-5-phenyl-pyrimidine-4,6-diamine] | 70 to 71 |
| Cc1ncc2c3ccc(C(F)(F)F)cc3n(C3CCCC3)c2n1 [Example 48, 9-cyclopentyl-2-methyl-7-(trifluoromethyl)-9H-pyrimido[4,5-b]indole] | 133 to 134 |

Second part, the compound after the results:

| melting point [°C] | SMILES |
| --- | --- |
| 105 to 108 | Cc1ncc(-c2cccc(C(F)(F)F)c2)c(NC2CCCC2)n1 [Example 29, N-cyclopentyl-2-methyl-5-[3-(trifluoromethyl)phenyl]pyrimidin-4-amine] |
| 128 to 132 | Cc1ncc(-c2ccc(C(F)(F)F)cc2C(F)(F)F)c(NC2CCCC2)n1 [Example 41, 5-[2,4-bis(trifluoromethyl)phenyl]-N-cyclopentyl-2-methylpyrimidin-4-amine] |
| 83 to 86 | Cc1ncc(-c2ccc(F)cc2)c(NC2CCCC2)n1 [Example 39, N-cyclopentyl-5-(4-fluorophenyl)-2-methylpyrimidin-4-amine] |
| 130 to 133 | Cc1ncc(-c2ccc(C(F)(F)F)cn2)c(NC2CCCC2)n1 [Example 47, Cyclopentyl-[2-methyl-5-(5-trifluoromethyl-pyridin-2-yl)-pyrimidin-4-yl]-amine] |
| 120 to 132 | Cc1ncc(-c2ccc(C(F)(F)F)cc2Cl)c(NC2CCCC2)n1 [Example 45, 5-[2-chloro-4-(trifluoromethyl)phenyl]-N-cyclopentyl-2-methylpyrimidin-4-amine] |
| 90 to 93 | Cc1ncc(C#Cc2ccc(C(F)(F)F)cc2)c(NC2CCCC2)n1 [Example 55, N-cyclopentyl-2-methyl-5-{[4-(trifluoromethyl)phenyl]ethynyl}-pyrimidin-4-amine] |
| 124 to 126 | Cc1ncc(-c2cc(C(F)(F)F)cc(C(F)(F)F)c2)c(NC2CCCC2)n1 [Example 30, 5-[3,5-bis(trifluoromethyl)phenyl]-N-cyclopentyl-2-methylpyrimidin-4-amine] |
| 249 to 254 | Cc1ncc(-c2cnc(C(F)(F)F)nc2)c(NC2CCCC2)n1 (as salt: hydrochloride) [Example 54, N-cyclopentyl-2-methyl-2′-(trifluoromethyl)-5,5′-bipyrimidin-4-amine hydrochloride] |
| 80 to 84 | Cc1ncc(-c2ccccc2C(F)(F)F)c(NC2CCCC2)n1 [Example 44, N-cyclopentyl-2-methyl-5-[2-(trifluoromethyl)phenyl]pyrimidin-4-amine] |
| 103 to 106 | Cc1ncc(-c2ccc(Cl)cc2)c(NC2CCCC2)n1 |
